From patent US10301314B2, “Compounds and methods for the prevention and treatment of tumor metastasis and tumorigenesis” (The United States of America, as represented by the …, priority 2011, dated 2019) come the findings set out here.

Series [1] concerns PC3M cell line that stably expresses GFP-PTB to mark PNCs. Description: High content assay for PNC detection (reduction of PNC prevalence). It counts as cell-based, human. Conditions: Homo sapiens, PC-3M, PC3M GFP-PTB cells; for AC50: Table 3; for IC50: Table 4, 16 hrs incubation.
For series [2], the system named is PC3M cells. In words: Soft agar colony formation assay (anchorage independent growth). In kind it is cell-based, human. Conditions: after 14 days; 3.8, 18.6 nM. How it is done:
Compound 2 was tested for its ability to affect anchorage independent growth in a soft agar assay, a stringent method to detect malignant transformation of cells in vitro. […] The left hand side of FIG. 1 illustrates a histogram representing the number and size of PC3M soft agar colonies after 14 days of treatment with compound 2 at two different concentrations. A clear reduction of the number of colonies of PC3M cells was observed, particularly at a compound concentration of 18.6 nM. The right hand side of FIG. 1 illustrates two representative images taken at two different regions of the soft agar medium after treatment with DMSO (vehicle) (top row), compound 2 at 3.8 nM (middle row), and compound 2 at 18.6 nM (bottom row).

Series [3] relates to PC3M cells. Description: Tumor cell migration/invasion assay through 3D fibrillar collagen (Iuvo Single Microchannel Plate). It counts as cell-based. Conditions: Homo sapiens, PC-3M, 120 h, 5 days. The procedure:
High-content tumor cell migration assays in 3-dimensional extracellular matrices are powerful tools for modeling and understanding the biology of this critical step in the process of metastasis. However, most of the available methods are not amenable to the throughput required by studies of comparative pharmacology or small scale screening. For this reason, compounds were tested in BellBrook Labs™ automated high-content tumor cell invasion assays. A standard screening-sized plate with an array of embedded microchannels was designed and constructed from common thermoplastics.
PC3M cells were tested for invasion through 3D fibrillar collagen in the luvo Single Microchannel Plate, in the presence of varying levels of test compounds. Channels were prefilled with 820 nL of 3-dimensional type I collagen at 1 mg/mL, through the input port. Following gelation, 2,000 PC3M cells were seeded into the output port using growth media (RPMI+10% FBS with antibiotics) in a volume of 5 μL. Cells were incubated in a 37° C. incubator inside a humidified container to control evaporation (Bioassay dish, Corning). Media, including test compounds, was changed daily for 5 days. At the end of the assay, cells were fixed and stained with Hoechst 33342, then imaged with 4× objective under epifluorescence. Under these conditions, cells across the 140 μm height range of the microchannel can be reliably identified. Test compounds were serially diluted by a factor of 3 to produce 10 concentrations ranging from 50 or 100 μM to 2.5 nM. All assays were conducted in the presence of 0.1% DMSO. Four replicates were performed for all test concentrations. Each plate had 4 dose response curves, as well as 16 channels with no compound and 16 channels with 50 μM blebbistatin (positive control). Analysis was done by automatically cropping each image at the right edge of the channel and counting cells via the ‘count nuclei’ function on Metamorph (Molecular Devices). Non-linear regression analysis was performed with GraphPad Prism.

Series [4] has as its system PC3M reporter cell line stably expressing the PTB-GFP. In words: ATP quantitation assay (ATPLite). Conditions: Homo sapiens, PC-3M, Table 4, PC3M cells, 24 hrs incubation. It counts as cell-based, human. (Cellular ATP, detected with luciferase, serves as a proxy for viable cell number.)
Where [5] appears, read: PC3M cells in output port, read-out: Proliferation output port IC50.
The mark [6] stands for this setting: PC3M cells, 3D type I collagen, read-out: Invasion cell # IC50.

Where two headings read alike, the source gives them in different places.

In the case of `N=c1c2c(-c3ccccc3)c(-c3ccccc3)n(Cc3ccccc3)c2ncn1[C@H]1CC[C@H](O)CC1` [Compound 2, trans-4-(7-Benzyl-4-imino-5,6-diphenyl-4,7-dihydro-3H-pyrrolo[2,3-d]pyrimidin-3-yl)cyclohexanol], the activity in series [1] was half-maximal at 0.4 µM (AC50). Further, the IC50 in series [1] came out at 0.024 µM; in series [3] (setting [5]), 3.98 µM; in series [3] (setting [6]) it was 3.16 µM; in series [4] it was 19.2 µM. The “cell viability in soft agar assay” value in series [2] was “no impact on cell viability”. The “number of PC3M soft agar colonies” value in series [2] was “dose dependent reduction in the number of colonies”.

With `N=c1c2c(-c3ccccc3)c(-c3ccccc3)n(Cc3ccccc3)c2ncn1C1CCOCC1` [Compound 1], half-maximal activity in series [1] (AC50) was put at 0.09 µM. For the same molecule, the IC50 came out at 0.03 µM in series [1], 5.01 µM in series [3] (setting [5]), 3.16 µM in series [3] (setting [6]) and 152 µM in series [4].
